PubChem BioAssay (NCI)
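Five compound concentrations were applied to cells in 96-well plates for 48 hours; endpoints were derived by simple linear interpolation of the resulting dose-response curve. TGI is the concentration that stops growth completely.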

Assays:
Test in all cases: NCI tumour cell line growth inhibition, 48 h
HCT-15 colon = test system: HCT-15 colon
OVCAR-5 ovarian = test system: OVCAR-5 ovarian
DLD-1 colon = test system: DLD-1 colon
IGROV1 ovarian = test system: IGROV1 ovarian
OVCAR-3 ovarian = test system: OVCAR-3 ovarian
NCI-H460 lung = test system: NCI-H460 lung
K-562 leukemia = test system: K-562 leukemia
SF-268 CNS = test system: SF-268 CNS
TK-10 renal = test system: TK-10 renal
SNB-78 CNS = test system: SNB-78 CNS
DU-145 prostate = test system: DU-145 prostate

SMILES | TGI (HCT-15 colon) [µM] | TGI (OVCAR-5 ovarian) [µM] | TGI (DLD-1 colon) [µM] | TGI (IGROV1 ovarian) [µM] | TGI (OVCAR-3 ovarian) [µM] | TGI (NCI-H460 lung) [µM] | TGI (K-562 leukemia) [µM] | TGI (SF-268 CNS) [µM] | TGI (TK-10 renal) [µM] | TGI (SNB-78 CNS) [µM] | TGI (DU-145 prostate) [µM]
CCc1ccc(N=Cc2cc(OC)c(OC)c(OC)c2)cc1 | > 100 | > 100 | > 100 | > 100 | > 100 | > 100 | 73.3 | > 100 | > 100 | > 100 | 
CC1(C)CCC[C@@]2(C)C1CCC1(C)C(CCc3ccoc3)/C(=C/OS(=O)(=O)O)CCC12 (stereo partly specified) (tested in a mixture with another compound) | > 100 | > 100 | > 100 | > 100 | > 100 | > 100 | > 100 | > 100 | > 100 | > 100 | 
CC(=O)OC12/C(=N/O)CCCCCC1c1ccccc12 (stereo unspecified) | > 100 |  |  |  |  | > 100 | > 100 | > 100 | > 100 | > 100 | 
Cc1ccc(S(=O)(=O)c2c(N)c3nc4ccccc4n3c3nc4ccccc4nc23)cc1 | > 100 | > 100 | > 100 | > 100 | > 100 | > 100 | > 100 | > 100 |  |  | 
O=C(CN1CCN(Cc2ccccc2)CC1)c1ccc2[nH]c(=O)oc2c1 | > 100 | > 100 |  | > 100 | > 100 | > 100 | > 100 | > 100 | > 100 |  | > 100
CN(C)c1ccc(/C=c2/c3ccccc3n3c2c2ccccc2[n+]3C)cc1 | 2.41 | 7.43 |  | 2.27 | 4.42 | > 38.2 | 4.71 | 1.98 | 3.36 |  | 4.19
Cc1cc(N(CCC#N)CCC#N)ccc1/C=C1N=C(/C=C\c2ccccc2)OC\1=O | > 100 | > 100 | > 100 | > 100 | > 100 | > 100 | > 100 | > 100 | > 100 | > 100 | 
N#Cc1c(N2CCCC2)nsc1NCc1ccccc1 | > 100 | > 100 |  | > 100 | > 100 | > 100 | > 100 | > 100 | > 100 |  | > 100
C=C(CN(C)C)C(=O)c1ccccc1C | > 63.1 | > 100 | 45.8 | > 100 | > 58.7 | > 100 | 45.9 | > 100 | > 100 | > 100 | > 100
Cc1ccccc1C(=O)c1c(O)c2c(c(O)c1Br)CCCC2 | 32.9 | 34.6 | 58.9 | 42.6 | 27.1 | 56.6 | 47.8 | 29 | 31.7 | 47.5 | 
COC(=O)CCc1cc(OC)c(O)c(C(Cc2ccc(OC)c(OC)c2)C(=O)OC)c1 (stereo unspecified) | > 100 | > 100 |  | > 100 | > 100 | > 100 | > 100 | > 100 | > 100 |  | > 100
Cc1c(C#N)c2nnn(-c3ccc(Cl)cc3)c(=O)n2c1-c1ccccc1 | 11.9 | 32.1 |  | 16.9 | 0.772 | 3.71 | 20.1 | 14.8 | 55 |  | 8.44
COC1=C2CC(C)CC(OC)C(O)C(C)/C=C(\C)C(OC(N)=O)C(OC)/C=C\C=C(/C)C(=O)NC(=C(C=NC(C)(C)C)C1=O)C2=O (stereo unspecified) | 33.1 | 74.1 | 45.7 | 53.2 | 13.2 | 18.4 | 6.26 | 37.4 |  | 46.2 | 
C/C(CC/C(C)=N/O)=N\O | > 100 | > 100 |  | > 100 | > 100 | > 100 | > 100 | > 100 | > 100 |  | > 100
NCC(=O)NC1(c2cc3ccccc3s2)CCCCC1 | > 100 | > 100 |  | > 100 | > 100 | > 100 | 24.6 | > 100 | > 100 |  | > 100
ClCCCN(CCCCl)c1ccc(C=Nc2cccc(Cl)c2)cc1 | > 100 | > 91.4 |  | > 100 | 57.9 | > 82.1 | > 83.9 | > 71.1 | 26.6 |  | > 44.6
